pIC50: −log10 of the molar value.

This passage reports IC50 results from patent publication US10899753B2, “Inhibiting agents for Bruton's tyrosine kinase” (BIOGEN MA INC., priority 2018, dated 2021).

For test [1], the target named is T1, BTK (Homo sapiens (Human), UniProt Q06187). In words: In Vitro BTK Kinase Assay: BTK-POLYGAT-LS ASSAY. In kind it is biochemical. The settings on record: fluorescein-labeled polyGAT peptide 100 nM, BTK enzyme 0.25 nM, 30 minutes, TRF. Here is the method: In Vitro BTK Kinase Assay: BTK-POLYGAT-LS ASSAY
T1 sequence (Q06187 whole entry): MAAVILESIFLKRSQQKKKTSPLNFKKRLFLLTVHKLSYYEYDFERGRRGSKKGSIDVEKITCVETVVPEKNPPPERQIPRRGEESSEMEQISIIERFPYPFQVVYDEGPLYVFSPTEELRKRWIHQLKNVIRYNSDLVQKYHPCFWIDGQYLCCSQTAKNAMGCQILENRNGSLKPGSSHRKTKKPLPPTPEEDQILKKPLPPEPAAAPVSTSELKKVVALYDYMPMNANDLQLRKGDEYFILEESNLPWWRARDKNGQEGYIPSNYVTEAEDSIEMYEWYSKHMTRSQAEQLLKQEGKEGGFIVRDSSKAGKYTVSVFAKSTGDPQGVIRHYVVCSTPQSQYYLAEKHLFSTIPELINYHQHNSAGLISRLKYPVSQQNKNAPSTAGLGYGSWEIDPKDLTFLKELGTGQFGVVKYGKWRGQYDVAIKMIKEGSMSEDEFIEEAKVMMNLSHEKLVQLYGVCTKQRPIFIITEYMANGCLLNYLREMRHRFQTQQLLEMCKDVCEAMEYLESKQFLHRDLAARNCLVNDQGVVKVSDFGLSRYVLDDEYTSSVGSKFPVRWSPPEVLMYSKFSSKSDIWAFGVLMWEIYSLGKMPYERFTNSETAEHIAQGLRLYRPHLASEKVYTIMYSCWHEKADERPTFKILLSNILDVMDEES
The purpose of the BTK in vitro assay is to determine compound potency against BTK through the measurement of IC50. […] For a typical assay, a […] aliquot of a ATP/peptide master mix (final concentration; ATP […], polyGAT 100 nM) in kinase buffer (10 mM Tris-HCl pH 7.5, 10 mM MgCl2, 200 μM Na3PO4, 5 mM DTT, 0.01% Triton X-100, and 0.2 mg/ml casein) is added to each well. […] The assay is incubated for 30 minutes before being stopped with 28 μL of a 50 mM EDTA solution. […] The plate is covered and incubated for 45 minutes at room temperature. Time resolved fluorescence (TRF) on Molecular Devices M5 (332 nm excitation; 488 nm emission; 518 nm fluorescein emission) is measured.

In test [2] the target is T1, BTK. The experiment in a line: In Vitro PD Assay in Human Whole Blood (pBTK assay). In kind it is cell-based. To be noted: human heparinized whole blood, 37° C. for 30 min, total BTK capture and phosphotyrosine detection (ECL). The procedure: In Vitro PD Assay in Human Whole Blood
Human heparinized venous blood was purchased from Bioreclamation, Inc. or SeraCare Life Sciences and shipped overnight. Whole blood was aliquoted into 96-well plate and “spiked” with serial dilutions of test compound in DMSO or with DMSO without drug. The final concentration of DMSO in all wells was 0.1%. The plate was incubated at 37° C. for 30 min. Lysis buffer containing protease and phosphatase inhibitors was added to the drug-containing samples and one of the DMSO-only samples (+PPi, high control), while lysis buffer containing protease inhibitors was added to the other DMSO-only samples (−PPi, low control). All of the lysed whole blood samples were subjected to the total BTK capture and phosphotyrosine detection method described in US20160311802, incorporated herein by reference.

What is called pIC50 is the IC50 on a negative log10 scale, so that one unit is a factor of ten. Higher therefore signals a low IC50. Consider `Cn1cc(Nc2ncnc(-c3ccc4c(c3)CN(CC(F)(F)F)CC[C@H]4NC(=O)c3noc(C(C)(C)C)n3)n2)cn1` [Compound 90, (R)-5-(tert-butyl)-N-(8-(4-((1-methyl-1H-pyrazol-4-yl)amino)-1,3,5-triazin-2-yl)-2-(2,2,2-trifluoroethyl)-2,3,4,5-tetrahydro-1H-benzo[c]azepin-5-yl)-1,2,4-oxadiazole-3-carboxamide], for which the pIC50 was over 9.00 in test [1] and over 7.00 in test [2].
Take `Cn1ccc(Nc2ncnc(-c3ccc(CNC(=O)c4noc(C(C)(C)C)n4)c(C(F)(F)F)c3)n2)n1` [Compound 7, 5-(tert-butyl)-N-(4-(4-((1-methyl-1H-pyrazol-3-yl)amino)-1,3,5-triazin-2-yl)-2-(trifluoromethyl)benzyl)-1,2,4-oxadiazole-3-carboxamide]: the pIC50 in test [1] was 8.00 to 9.00.
As to `Cn1cc(Nc2ncnc(-c3ccc4c(c3)CCCC[C@H]4NC(=O)c3cnc(C(C)(C)C)o3)n2)cn1` [Compound 35, 2-tert-butyl-N-[(5R)-2-[4-[(1-methylpyrazol-4-yl)amino]-1,3,5-triazin-2-yl]-6,7,8,9-tetrahydro-5H-benzo[7]annulen-5-yl]-oxazole-5-carboxamide], the pIC50 in test [1] was over 9.00; in test [2], 6.30 to 7.00.
As for `Cn1ccc(Nc2ncnc(-c3ccc(CNC(=O)c4nc(C(C)(C)C)no4)c(C(F)F)c3F)n2)n1` [Compound 66, 3-(tert-butyl)-N-(2-(difluoromethyl)-3-fluoro-4-(4-((1-methyl-1H-pyrazol-3-yl)amino)-1,3,5-triazin-2-yl)benzyl)-1,2,4-oxadiazole-5-carboxamide], the results for the pIC50 in test [1] and in test [2] were 8.00 to 9.00 and 5.00 to 6.30, respectively.
In the same order, the values of `Cc1c(CNC(=O)c2nc(C3(CF)CC3)no2)ccc(-c2ncnc(Nc3ccn(C)n3)n2)c1F` [Compound 46, N-(3-fluoro-2-methyl-4-(4-((1-methyl-1H-pyrazol-3-yl)amino)-1,3,5-triazin-2-yl)benzyl)-3-(1-(fluoromethyl)cyclopropyl)-1,2,4-oxadiazole-5-carboxamide] are 8.00 to 9.00 and 5.00 to 6.30.
Regarding `Cc1cc(-c2ncnc(Nc3cnn(C)c3)n2)ccc1CNC(=O)c1coc(C(C)(C)C)n1` [Compound 107, 2-(tert-butyl)-N-(2-methyl-4-(4-((1-methyl-1H-pyrazol-4-yl)amino)-1,3,5-triazin-2-yl)benzyl)oxazole-4-carboxamide], the values for the pIC50 in test [1] and in test [2] were over 9.00 and 5.00 to 6.30, respectively.
On the same counts, the results for `Cc1c(CNC(=O)c2noc(C(C)(C)C)n2)ccc(-c2ncnc(Nc3cnn(C)c3)n2)c1F` [Compound 13, 5-(tert-butyl)-N-(3-fluoro-2-methyl-4-(4-((1-methyl-1H-pyrazol-4-yl)amino)-1,3,5-triazin-2-yl)benzyl)-1,2,4-oxadiazole-3-carboxamide] are over 9.00 and over 7.00.
For the compound `Cn1cc(Nc2ncnc(-c3ccc4c(c3)CCCC[C@H]4NC(=O)c3noc(C(C)(C)C)n3)n2)cn1` [Compound 33, 5-tert-butyl-N-[(5R)-2-[4-[(1-methylpyrazol-4-yl)amino]-1,3,5-triazin-2-yl]-6,7,8,9-tetrahydro-5H-benzo[7]annulen-5-yl]-1,2,4-oxadiazole-3-carboxamide], the pIC50 in test [1] was over 9.00; in test [2] it was over 7.00.
In the case of `Cc1c(CNC(=O)c2noc(C3(CF)CC3)n2)ccc(-c2ncnc(Nc3cnn(C)c3)n2)c1F` [Compound 50, N-(3-fluoro-2-methyl-4-(4-((1-methyl-1H-pyrazol-4-yl)amino)-1,3,5-triazin-2-yl)benzyl)-5-(1-(fluoromethyl)cyclopropyl)-1,2,4-oxadiazole-3-carboxamide], the pIC50 in test [1] is over 9.00; in test [2], over 7.00.
In test [2], `C[C@@H](NC(=O)c1nc(C(C)(C)C)no1)c1ccc(-c2ncnc(Nc3cnn(C)c3)n2)c(F)c1Cl` [Compound 70, (R)-3-(tert-butyl)-N-(1-(2-chloro-3-fluoro-4-(4-((1-methyl-1H-pyrazol-4-yl)amino)-1,3,5-triazin-2-yl)phenyl)ethyl)-1,2,4-oxadiazole-5-carboxamide] gave a pIC50 of over 7.00.
For the compound `Cn1ccc(Nc2ncnc(-c3ccc4c(c3)CCCC[C@H]4NC(=O)c3noc(C(C)(C)CF)n3)n2)n1` [Compound 53, (R)-5-(1-fluoro-2-methylpropan-2-yl)-N-(2-(4-((1-methyl-1H-pyrazol-3-yl)amino)-1,3,5-triazin-2-yl)-6,7,8,9-tetrahydro-5H-benzo[7]annulen-5-yl)-1,2,4-oxadiazole-3-carboxamide], the values for the pIC50 in test [1] and in test [2] were over 9.00 and 6.30 to 7.00, respectively.
In test [1], `C[C@@H](NC(=O)c1nc(C(C)(C)C)no1)c1ccc(-c2ncnc(Nc3ccn(C)n3)n2)c(F)c1C(F)F` [Compound 83, (R)-3-(tert-butyl)-N-(1-(2-(difluoromethyl)-3-fluoro-4-(4-((1-methyl-1H-pyrazol-3-yl)amino)-1,3,5-triazin-2-yl)phenyl)ethyl)-1,2,4-oxadiazole-5-carboxamide] had a pIC50 of 8.00 to 9.00.
On to `Cn1cc(Nc2ncnc(-c3ccc(CNC(=O)c4noc(C(C)(C)C)n4)c(C(F)(F)F)c3)n2)cn1` [Compound 17, 5-(tert-butyl)-N-(4-(4-((1-methyl-1H-pyrazol-4-yl)amino)-1,3,5-triazin-2-yl)-2-(trifluoromethyl)benzyl)-1,2,4-oxadiazole-3-carboxamide], for which the pIC50 in test [1] was over 9.00; in test [2], 6.30 to 7.00.
In the case of `Cc1cc(-c2ncnc(Nc3cnn(C)c3)n2)ccc1CNC(=O)c1nnc(C(C)(C)C)o1` [Compound 110, 5-(tert-butyl)-N-(2-methyl-4-(4-((1-methyl-1H-pyrazol-4-yl)amino)-1,3,5-triazin-2-yl)benzyl)-1,3,4-oxadiazole-2-carboxamide], in test [1], the pIC50 is 8.00 to 9.00.
Still for that read-out and setting: the same measure for `Cn1ccc(Nc2ncnc(-c3ccc(CNC(=O)c4noc(C(C)(C)C)n4)c(C(F)(F)F)c3F)n2)n1` [Compound 19, 5-(tert-butyl)-N-(3-fluoro-4-(4-((1-methyl-1H-pyrazol-3-yl)amino)-1,3,5-triazin-2-yl)-2-(trifluoromethyl)benzyl)-1,2,4-oxadiazole-3-carboxamide]: 8.00 to 9.00.
As to `Cn1cc(Nc2ncnc(-c3ccc4c(c3)CN(C3COC3)CC[C@H]4NC(=O)c3cn(C(C)(C)C)nn3)n2)cn1` [Compound 24, 1-tert-butyl-N-[(5R)-8-[4-[(1-methylpyrazol-4-yl)amino]-1,3,5-triazin-2-yl]-2-(oxetan-3-yl)-1,3,4,5-tetrahydro-2-benzazepin-5-yl]triazole-4-carboxamide], the pIC50 in test [2] is over 7.00.
For `Cc1cc(-c2ncnc(Nc3cnn(C)c3)n2)ccc1CNC(=O)c1cc(C(C)(C)C)on1` [Compound 38], the pIC50 in test [2] was 6.30 to 7.00.
Consider `Cn1cc(Nc2ncnc(-c3ccc(CNC(=O)c4nc(C(C)(C)C)no4)c(C(F)(F)F)c3)n2)cn1` [Compound 18, 3-(tert-butyl)-N-(4-(4-((1-methyl-1H-pyrazol-4-yl)amino)-1,3,5-triazin-2-yl)-2-(trifluoromethyl)benzyl)-1,2,4-oxadiazole-5-carboxamide], for which, in test [1], the pIC50 was over 9.00.
In test [2], `Cc1cc(-c2ncnc(Nc3cnn(C)c3)n2)ccc1CNC(=O)c1noc(C2[C@@H](C)[C@H]2C)n1` (stereo partly drawn) [Compound 41, 5-(2,3-cis-dimethylcyclopropyl)-N-(2-methyl-4-(4-((1-methyl-1H-pyrazol-4-yl)amino)-1,3,5-triazin-2-yl)benzyl)-1,2,4-oxadiazole-3-carboxamide] gave a pIC50 of 5.00 to 6.30.
Turning to `Cc1c(CNC(=O)c2nc(C(C)(C)C)no2)ccc(-c2ncnc(Nc3ccn(C)n3)n2)c1F` [Compound 10, 3-(tert-butyl)-N-(3-fluoro-2-methyl-4-(4-((1-methyl-1H-pyrazol-3-yl)amino)-1,3,5-triazin-2-yl)benzyl)-1,2,4-oxadiazole-5-carboxamide], the pIC50 in test [1] is over 9.00.
Regarding `Cn1ccc(Nc2ncnc(-c3ccc4c(c3)CN(CC(F)(F)F)CC[C@H]4NC(=O)c3noc(C(C)(C)C)n3)n2)n1` [Compound 25, 5-tert-butyl-N-[(5R)-8-[4-[(1-methylpyrazol-3-yl)amino]-1,3,5-triazin-2-yl]-2-(2,2,2-trifluoroethyl)-1,3,4,5-tetrahydro-2-benzazepin-5-yl]-1,2,4-oxadiazole-3-carboxamide], in test [2], the pIC50 was over 7.00.
`Cn1ccc(Nc2ncnc(-c3ccc(CNC(=O)c4noc(C(C)(C)C)n4)c(CC(F)F)c3)n2)n1` [Compound 67, 5-(tert-butyl)-N-(2-(2,2-difluoroethyl)-4-(4-((1-methyl-1H-pyrazol-3-yl)amino)-1,3,5-triazin-2-yl)benzyl)-1,2,4-oxadiazole-3-carboxamide]: the pIC50 in test [1] was 8.00 to 9.00.
Consider `Cn1ccc(Nc2ncnc(-c3ccc(CNC(=O)c4nc(C(C)(C)C)no4)c(C(F)(F)F)c3)n2)n1` [Compound 8, 3-(tert-butyl)-N-(4-(4-((1-methyl-1H-pyrazol-3-yl)amino)-1,3,5-triazin-2-yl)-2-(trifluoromethyl)benzyl)-1,2,4-oxadiazole-5-carboxamide], for which the pIC50 in test [1] was 8.00 to 9.00.
